Test results: US12404261B2, “Compounds and compositions for treating conditions associated with cGAS” (Novartis AG, priority 2020, dated 2025)
pIC50: −log10 of the molar value.

Molecular target: human truncated cGAS enzyme (147-522 human cGAS) (Homo sapiens (Human), UniProt Q8N884)
Test: Quantification of cGAS protein inhibition (cGAMP formation measured by LC-MS/MS)
Type: biochemical
Details: reported for the potential mixture in solution of co-existing tautomers and/or racemates
Description: A reagent buffer was prepared in filtered and autoclaved water according to the following: • 50 mM Tris-buffer pH 7.5 (1 M Tris-buffer pH 7.5, Invitrogen, Cat. No. 15567-027); • 50 mM NaCl (5 M NaCl, Sodium Chloride Solution, Sigma, 59222C-); • 5 mM MgCl2 (1 M MgCl2, Sigma, M1028); • 0.1 mM ZnCl2 (Zinc Chloride [7646-85-7], powder, Cell Culture Tested, Sigma, Z-0152); and • 0.001% Tween 20 (TWEEN 20, Sigma Aldrich, P1379-).
A buffer for the cGAS enzyme was prepared in filtered and autoclaved water according to the following: • 50 mM Tris-buffer pH 7.5; • 5 mM MgCl2; and • 0.001% Tween 20.
Compounds were dispensed to a […]. The human truncated cGAS enzyme (4.2 mg/mL 147-522 human cGAS, MW 43,909 g/mol) was stored in 50 mM Tris, 500 mM NaCl, 5% (v/v) glycerol at pH 8 and diluted in the cGAS buffer enzyme shortly before use. The enzyme solution was transferred into the reagent buffer to give a final concentration of 30 nM. The reaction was started by mixing the enzyme with ISD (a 45 bp double stranded DNA, MW 27,670 g/mol, 5 mM), GTP and ATP to a final concentration of 5 μM, 0.5 mM and 0.5 mM respectively in a final volume of 10 μl. The reaction plates were then centrifuged at 1000 rpm for 1 minute and incubated at room temperature for 1 h. After 1 h of incubation, [^5Ns]-2′3′-cGAMP to a final concentration of 200 nM and 30 μL of 100% acetonitrile/0.175% of TFA were added to the reaction mixture. The plates were centrifuged at 1000 rpm for 1 minute before being sealed for 3 seconds at 170° C. using a ThermoScientific sealer (ALPS™ 50V) and an aluminum sealing cover (Pierce Seal, 4titude, Product Code: 4TI-0531).
The concentration of cGAMP was measured on a LC-MS/MS system consisting of a THERMO Dionex Ultimate LC system with a high pressure pump, an autosampler, a column heating compartment (Reinach, Switzerland) and a SCIEX Triple Quad 5500 (Framingham, MA, USA) mass spectrometer for detection. The sample plates were centrifuged for 10 minutes at 2000 rpm. Up to three plates were placed in the autosampler for injection. An aliquot of 10 μL of each sample was injected on an XBridge BEH Amide 3.5 μm, 2.1×50 mm column (P/N 186004859) with an XBridge BEH Amide 5 μm 2.1×5 mm VanGuard Cartridge (P/N 186007760) pre-column (both WATERS, MA, USA) held at 40° C. An isocratic flow of 1.0 mL/min solvent (60% ACN, 8 mM ammonium acetate, 5 mM ammonium hydroxide, 0.04% acetic acid) was applied and sprayed into the ion source of the mass spectrometers. The MS parameters were optimized based on the properties of the compounds to be detected and run in positive multi-reaction mode (MRM) based on the mass transitions. LC and MS parameters were also optimized to allow for a sample-to-sample measuring time of approximately 75 sec and a run time of 8 hours per 384-well plate. All data were analyzed with Excel; and the dose response curves were generated using the auto fitting function of XLfit. The IC50 was determined by plotting the cGAMP concentration ratio (cGAMP divided by the internal standard [^15Ns]-2′3′-cGAMP) versus the concentration of compound.

Sequence of human truncated cGAS enzyme (147-522 human cGAS) (Q8N884 147-522): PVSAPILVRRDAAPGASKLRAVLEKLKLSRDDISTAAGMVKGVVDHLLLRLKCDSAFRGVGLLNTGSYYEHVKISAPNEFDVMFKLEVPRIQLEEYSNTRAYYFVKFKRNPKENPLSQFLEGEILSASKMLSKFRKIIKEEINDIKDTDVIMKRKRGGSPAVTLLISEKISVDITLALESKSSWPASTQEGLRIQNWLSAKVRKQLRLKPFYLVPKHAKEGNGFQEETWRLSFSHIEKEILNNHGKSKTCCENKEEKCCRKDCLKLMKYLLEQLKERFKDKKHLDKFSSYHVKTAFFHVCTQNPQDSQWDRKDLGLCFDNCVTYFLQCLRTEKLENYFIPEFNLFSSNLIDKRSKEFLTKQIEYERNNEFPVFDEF

Structure (SMILES)	pIC50
COC[C@H](c1nnc(-c2c(-n3ccnc3)c3cc(OC)c(Cl)c(F)c3n2C)[nH]1)N(C)C [Example 124b, (S)-1-(5-(6-chloro-7-fluoro-3-(1H-imidazol-1-yl)-5-methoxy-1-methyl-1H-indol-2-yl)-4H-1,2,4-triazol-3-yl)-2-methoxy-N,N-dimethylethan-1-amine]	6.85
Cn1c(-c2nnc(CCO)[nH]2)c(-n2ccnc2)c2cc(O)c(Cl)c(C#N)c21 [Example 117, 6-chloro-5-hydroxy-2-(5-(2-hydroxyethyl)-4H-1,2,4-triazol-3-yl)-3-(1H-imidazol-1-yl)-1-methyl-1H-indole-7-carbonitrile]	6.77
COc1cc2c(-n3ccnc3)c(-c3nnc(C(F)(F)F)[nH]3)[nH]c2cc1Cl [Example 107, 6-chloro-3-(1H-imidazol-1-yl)-5-methoxy-2-(5-(trifluoromethyl)-4H-1,2,4-triazol-3-yl)-1H-indole]	7.10
COc1cc2c(-n3ccnc3)c(-c3nnc(C(F)(F)F)[nH]3)n(C)c2cc1Cl [Example 114, 6-chloro-3-(1H-imidazol-1-yl)-5-methoxy-1-methyl-2-(5-(trifluoromethyl)-4H-1,2,4-triazol-3-yl)-1H-indole]	6.85
CN[C@@H](COC)c1nnc(-c2c(-n3ccnc3)c3cc(OC)c(Cl)c(F)c3n2C)[nH]1 [Example 125a, (R)-1-(5-(6-chloro-7-fluoro-3-(1H-imidazol-1-yl)-5-methoxy-1-methyl-1H-indol-2-yl)-4H-1,2,4-triazol-3-yl)-2-methoxy-N-methylethan-1-amine]	6.74

Same assay, conditions: reported for the potential mixture of co-existing tautomers and/or racemates

Structure (SMILES)	pIC50
COc1cc2c(-n3ccnc3)c(-c3n[nH]c(C(CO)OC)n3)n(C)c2c(F)c1Cl (stereo not shown) [Example 93, 2-(3-(6-chloro-7-fluoro-3-(1H-imidazol-1-yl)-5-methoxy-1-methyl-1H-indol-2-yl)-1H-1,2,4-triazol-5-yl)-2-methoxyethan-1-ol]	7.22
COc1cc2c(-n3ccnc3)c(-c3nnc(N(C)CCO)[nH]3)n(C)c2c(F)c1Cl [Example 90, 2-((5-(6-chloro-7-fluoro-3-(1H-imidazol-1-yl)-5-methoxy-1-methyl-1H-indol-2-yl)-4H-1,2,4-triazol-3-yl)(methyl)amino)ethan-1-ol]	7.03
COc1cc2c(-c3cn[nH]c3)c(-c3nnc(C(C)F)[nH]3)n(C)c2c(F)c1Cl (stereo not shown) [Example 72, 6-chloro-7-fluoro-2-(5-(1-fluoroethyl)-4H-1,2,4-triazol-3-yl)-5-methoxy-1-methyl-3-(1H-pyrazol-4-yl)-1H-indole]	7.21
COc1cc2c(-c3cn[nH]c3)c(-c3nnc(C(F)(F)F)[nH]3)n(C)c2cc1Cl [Example 20, 6-chloro-5-methoxy-1-methyl-3-(1H-pyrazol-4-yl)-2-(5-(trifluoromethyl)-4H-1,2,4-triazol-3-yl)-1H-indole]	6.94
COc1cc2c(-c3cn[nH]c3)c(-c3nnc(N(C)CCO)[nH]3)n(C)c2c(F)c1Cl [Example 63, 2-((5-(6-chloro-7-fluoro-5-methoxy-l-methyl-3-(1H-pyrazol-4-yl)-1H-indol-2-yl)-4H-1,2,4-triazol-3-yl)(methyl)amino)ethan-1-ol]	7.27
Cn1c(-c2nnc(C(F)(F)F)[nH]2)c(-c2cn[nH]c2)c2cc(Cl)c(Cl)cc21 [Example 23, 5,6-dichloro-1-methyl-3-(1H-pyrazol-4-yl)-2-(5-(trifluoromethyl)-4H-1,2,4-triazol-3-yl)-1H-indole]	6.95
COCC(F)(F)c1nnc(-c2c(-n3ccnc3)c3cc(OC)c(Cl)c(C#N)c3n2C)[nH]1 [Example 55, 6-chloro-2-(5-(1,1-difluoro-2-methoxyethyl)-4H-1,2,4-triazol-3-yl)-3-(1H-imidazol-1-yl)-5-methoxy-1-methyl-1H-indole-7-carbonitrile]	7.26
Oc1cc2c(-c3cn[nH]c3)c(-c3nnc(C(F)(F)F)[nH]3)[nH]c2cc1Cl [Example 33, 6-Chloro-3-(1H-pyrazol-4-yl)-2-(5-(trifluoromethyl)-4H-1,2,4-triazol-3-yl)-1H-indol-5-ol]	7.42
COCCn1c(-c2nnc(C(F)(F)F)[nH]2)c(-c2cn[nH]c2)c2cc(OC)c(Cl)cc21 [Example 26, 6-chloro-5-methoxy-1-(2-methoxyethyl)-3-(1H-pyrazol-4-yl)-2-(5-(trifluoromethyl)-4H-1,2,4-triazol-3-yl)-1H-indole]	5.74
COc1cc2c(-c3cn[nH]c3)c(-c3nnc(F)[nH]3)[nH]c2c(F)c1Cl [Example 3, 6-chloro-7-fluoro-2-(5-fluoro-4H-1,2,4-triazol-3-yl)-5-methoxy-3-(1H-pyrazol-4-yl)-1H-indole]	7.52
COc1cc2c(-c3cn[nH]c3)c(-c3nnc(C(C)N(C)C)[nH]3)n(C)c2c(F)c1Cl (stereo not shown) [Example 80, 1-(5-(6-chloro-7-fluoro-5-methoxy-1-methyl-3-(1H-pyrazol-4-yl)-1H-indol-2-yl)-4H-1,2,4-triazol-3-yl)-N,N-dimethylethan-1-amine]	7.41
COc1cc2c(-n3ccnc3)c(-c3nnc(CCO)[nH]3)n(C)c2c(F)c1Cl [Example 51, 2-(5-(6-chloro-7-fluoro-3-(1H-imidazol-1-yl)-5-methoxy-1-methyl-1H-indol-2-yl)-4H-1,2,4-triazol-3-yl)ethan-1-ol]	6.77
COCc1nnc(-c2c(-n3ccnc3)c3cc(OC)c(Cl)c(F)c3n2C)[nH]1 [Example 49, 6-chloro-7-fluoro-3-(1H-imidazol-1-yl)-5-methoxy-2-(5-(methoxymethyl)-4H-1,2,4-triazol-3-yl)-1-methyl-1H-indole]	6.97
COc1cc2c(-n3ccnc3)c(-c3nnc(C(O)C(F)(F)F)[nH]3)n(C)c2c(F)c1Cl (stereo not shown) [Example 98, 1-(5-(6-chloro-7-fluoro-3-(1H-imidazol-1-yl)-5-methoxy-1-methyl-1H-indol-2-yl)-4H-1,2,4-triazol-3-yl)-2,2,2-trifluoroethan-1-ol]	7.43
COc1cc2c(-n3ccnc3)c(-c3nnc(C(=O)N(C)CCO)[nH]3)n(C)c2c(F)c1Cl [Example 41, 5-(6-chloro-7-fluoro-3-(1H-imidazol-1-yl)-5-methoxy-1-methyl-1H-indol-2-yl)-N-(2-hydroxyethyl)-N-methyl-4H-1,2,4-triazole-3-carboxamide]	7.21
COCC(F)c1nnc(-c2c(-c3cn[nH]c3)c3cc(OC)c(Cl)c(F)c3n2C)[nH]1 (stereo not shown) [Example 70, 6-chloro-7-fluoro-2-(5-(1-fluoro-2-methoxyethyl)-4H-1,2,4-triazol-3-yl)-5-methoxy-1-methyl-3-(1H-pyrazol-4-yl)-1H-indole]	7.41
COc1c(Cl)ccc2c(-c3cn[nH]c3)c(-c3nnc(C(F)(F)F)[nH]3)[nH]c12 [Example 17, 6-chloro-7-methoxy-3-(1H-pyrazol-4-yl)-2-(5-(trifluoromethyl)-4H-1,2,4-triazol-3-yl)-1H-indole]	5.83
COCC(=O)c1nnc(-c2[nH]c3c(Cl)c(Cl)ccc3c2-c2cn[nH]c2)[nH]1 [Example 7, 1-(5-(6,7-dichloro-3-(1H-pyrazol-4-yl)-1H-indol-2-yl)-4H-1,2,4-triazol-3-yl)-2-methoxyethan-1-one]	7.52
COc1cc2c(-n3ccnc3)c(-c3nnc(C(=O)N4CCC(O)C4)[nH]3)n(C)c2c(F)c1Cl (stereo not shown) [Example 43, (5-(6-chloro-7-fluoro-3-(1H-imidazol-1-yl)-5-methoxy-1-methyl-1H-indol-2-yl)-4H-1,2,4-triazol-3-yl)(3-hydroxypyrrolidin-1-yl)methanone]	7.21
FC(F)(F)c1nnc(-c2cc3c(Cl)c(Cl)ccc3n2-c2cn[nH]c2)[nH]1 [Example 32, 4,5-dichloro-1-(1H-pyrazol-4-yl)-2-(5-(trifluoromethyl)-4H-1,2,4-triazol-3-yl)-1H-indole]	6.30
